{"source": "paper PMC9603750", "about": "“Chalcone-Acridine Hybrid Suppresses Melanoma Cell Progression via G2/M Cell Cycle Arrest, DNA Damage, Apoptosis, and Modulation of MAP Kinases Activity” (International Journal of Molecular Sciences, 2022)", "assay_type_in_all_cases": "cell-based, human", "key": {"A2058 melanoma cells [1]": {"tested_on": "A2058 melanoma cells", "experiment": "Flow cytometric analysis of caspase-3/7 activity", "details": "A2058, 1C 10 μmol/L, 24, 48 and 72 h", "protocol": "(§1) The A2058 and BLM melanoma cells were seeded 1 × 10^6 in Petri dishes with complete growth medium and cultivated for 24 h. After cell cultivation, the A2058 cells were treated with chalcone 1C at 10 μmol/L concentration, BLM cells at 20 μmol/L concentration and both melanoma cell lines were treated with DMSO as the negative control at the same concentrations for 24, 48 and 72 h. Adherent and floating cells were harvested, pelleted by centrifugation at 1200 rpm for 5 min. Pellets were resuspended in washing buffer (PBS) and divided for a particular analysis. Afterwards, cells were prepared according to assay kit protocols or fixed with cold 4% paraformaldehyde (15 min) and permeabilized with 90% methanol (10 min on ice) with washing steps (PBS) and stained prior to analysis (Table 5) for 15 min in the dark at room temperature. Fluorescence was detected using a BD FACSCalibur^TM Flow Cytometer (Becton Dickinson, San Jose, CA, USA)."}, "BLM melanoma cells [2]": {"tested_on": "BLM melanoma cells", "experiment": "Flow cytometric analysis of caspase-3/7 activity", "details": "1C 20 μmol/L, 24, 48 and 72 h", "protocol": "as §1"}, "A2058 melanoma cells [3]": {"tested_on": "A2058 melanoma cells", "experiment": "Cell cycle analysis by flow cytometry (PI)", "details": "A2058, 1C 10 μmol/L", "protocol": "(§2) The A2058 and BLM melanoma cells were seeded at a density of 1 × 10^5/dish in a Petri dish. Twenty-four hours after incubation, A2058 cells were treated with chalcone 1C at 10 μmol/L concentration, BLM cells at 20 μmol/L concentration and both melanoma cell lines were treated with DMSO as the negative control at the same concentrations. For flow cytometric analysis of the cell cycle, adherent and floating A2058 and BLM melanoma cells were harvested in three different times (24, 48 and 72 h) after treatment with chalcone 1C and DMSO, washed in cold washing buffer (PBS), fixed in cold 70% ethanol and stored at −20 °C at least overnight. Prior to analysis, cells were washed with PBS, resuspended in staining solution (Triton X-100 final concentration 0.1%, ribonuclease A final concentration 0.5 mg/mL and propidium iodide final concentration 0.025 mg/mL, all Sigma), and incubated for 30 min in the dark at room temperature. Stained melanoma cells were analysed using a BD FACSCalibur^TM Flow Cytometer (Becton Dickinson, San Jose, CA, USA). Three independent analyses were performed."}, "BLM melanoma cells [4]": {"tested_on": "BLM melanoma cells", "experiment": "Cell cycle analysis by flow cytometry (PI)", "details": "1C 20 μmol/L", "protocol": "as §2"}}}
{"smiles": "COc1cccc(OC)c1C(=O)/C=C/c1c2ccccc2nc2ccccc12", "note": "[Compound 1C, (2E)-3-(acridin-9-yl)-1-(2,6-dimethoxyphenyl)prop-2-en-1-one]", "values": [{"measurement": "Caspase-3/7 activity in apoptotic cells", "setting": "A2058 melanoma cells [1]", "result": "significant activity"}, {"measurement": "Caspase-3/7 activity in apoptotic cells", "setting": "BLM melanoma cells [2]", "result": "significant activity"}, {"measurement": "G1", "setting": "A2058 melanoma cells [3]; 24 h", "result": "34.67 ± 4.92"}, {"measurement": "G2/M", "setting": "A2058 melanoma cells [3]; 24 h", "result": "52.23 ± 7.03"}, {"measurement": "S", "setting": "A2058 melanoma cells [3]; 24 h", "result": "11.79 ± 1.51"}, {"measurement": "subG0", "setting": "A2058 melanoma cells [3]; 24 h", "result": "1.30 ± 1.11"}, {"measurement": "G1", "setting": "A2058 melanoma cells [3]; 48 h", "result": "24.60 ± 11.45"}, {"measurement": "G2/M", "setting": "A2058 melanoma cells [3]; 48 h", "result": "59.73 ± 12.23"}, {"measurement": "S", "setting": "A2058 melanoma cells [3]; 48 h", "result": "8.12 ± 1.15"}, {"measurement": "subG0", "setting": "A2058 melanoma cells [3]; 48 h", "result": "7.54 ± 3.73"}, {"measurement": "G1", "setting": "A2058 melanoma cells [3]; 72 h", "result": "18.67 ± 8.56"}, {"measurement": "G2/M", "setting": "A2058 melanoma cells [3]; 72 h", "result": "60.37 ± 4.42"}, {"measurement": "S", "setting": "A2058 melanoma cells [3]; 72 h", "result": "8.85 ± 2.70"}, {"measurement": "subG0", "setting": "A2058 melanoma cells [3]; 72 h", "result": "12.12 ± 5.84"}, {"measurement": "G1", "setting": "BLM melanoma cells [4]; 24 h", "result": "19.35 ± 1.43"}, {"measurement": "G2/M", "setting": "BLM melanoma cells [4]; 24 h", "result": "63.25 ± 0.45"}, {"measurement": "S", "setting": "BLM melanoma cells [4]; 24 h", "result": "9.19 ± 0.28"}, {"measurement": "subG0", "setting": "BLM melanoma cells [4]; 24 h", "result": "8.22 ± 1.62"}, {"measurement": "G1", "setting": "BLM melanoma cells [4]; 48 h", "result": "11.65 ± 0.69"}, {"measurement": "G2/M", "setting": "BLM melanoma cells [4]; 48 h", "result": "54.95 ± 0.45"}, {"measurement": "S", "setting": "BLM melanoma cells [4]; 48 h", "result": "16.35 ± 0.20"}, {"measurement": "subG0", "setting": "BLM melanoma cells [4]; 48 h", "result": "17.05 ± 0.45"}, {"measurement": "G1", "setting": "BLM melanoma cells [4]; 72 h", "result": "13.85 ± 1.18"}, {"measurement": "G2/M", "setting": "BLM melanoma cells [4]; 72 h", "result": "29.25 ± 0.04"}, {"measurement": "S", "setting": "BLM melanoma cells [4]; 72 h", "result": "32.60 ± 2.69"}, {"measurement": "subG0", "setting": "BLM melanoma cells [4]; 72 h", "result": "24.30 ± 3.84"}]}
